Like-named read-outs stand apart in the source and are kept apart here.
Experiments:
Assay type in all cases: cell-based
[1] = target: protein kinases (human kinome) (Homo sapiens, UniProt Q07912); conditions: for logFC TNK2 (Q07912-1): direction down; for logFC TNK2: TNK2 (Q07912-1)
[2] = target: T1, protein kinases (human kinome) (Homo sapiens, UniProt Q12851); conditions: for logFC MAP4K2 (Q12851): direction down; for logFC: MAP4K2 (Q12851)
T1 sequence (Q12851 1-820): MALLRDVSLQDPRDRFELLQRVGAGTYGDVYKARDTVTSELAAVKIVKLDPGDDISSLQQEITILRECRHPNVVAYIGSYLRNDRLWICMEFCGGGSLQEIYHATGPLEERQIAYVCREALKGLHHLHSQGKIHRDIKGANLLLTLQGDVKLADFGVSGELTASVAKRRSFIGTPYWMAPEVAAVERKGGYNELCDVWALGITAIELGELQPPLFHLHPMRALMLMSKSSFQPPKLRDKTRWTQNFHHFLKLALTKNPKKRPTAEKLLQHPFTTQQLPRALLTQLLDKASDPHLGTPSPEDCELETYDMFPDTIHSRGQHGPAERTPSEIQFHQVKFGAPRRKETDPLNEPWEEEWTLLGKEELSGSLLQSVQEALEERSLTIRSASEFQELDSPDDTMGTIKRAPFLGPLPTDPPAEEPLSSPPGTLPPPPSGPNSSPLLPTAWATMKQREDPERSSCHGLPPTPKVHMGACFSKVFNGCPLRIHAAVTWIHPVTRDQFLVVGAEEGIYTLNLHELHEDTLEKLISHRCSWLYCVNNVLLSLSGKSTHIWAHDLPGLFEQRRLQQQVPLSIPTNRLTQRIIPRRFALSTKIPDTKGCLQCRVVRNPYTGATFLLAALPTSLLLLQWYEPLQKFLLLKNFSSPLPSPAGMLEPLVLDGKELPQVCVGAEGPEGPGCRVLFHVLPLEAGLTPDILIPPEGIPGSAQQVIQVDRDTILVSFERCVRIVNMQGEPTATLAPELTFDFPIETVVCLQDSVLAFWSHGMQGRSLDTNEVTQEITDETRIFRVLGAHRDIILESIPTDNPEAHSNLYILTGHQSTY

[3] = target: protein kinases (human kinome) (Homo sapiens, UniProt O43683); conditions: for logFC: BUB1 (O43683); for logFC BUB1 (O43683): direction down
Sequence of protein kinases (human kinome) (Homo sapiens, UniProt O43683) (O43683 whole entry): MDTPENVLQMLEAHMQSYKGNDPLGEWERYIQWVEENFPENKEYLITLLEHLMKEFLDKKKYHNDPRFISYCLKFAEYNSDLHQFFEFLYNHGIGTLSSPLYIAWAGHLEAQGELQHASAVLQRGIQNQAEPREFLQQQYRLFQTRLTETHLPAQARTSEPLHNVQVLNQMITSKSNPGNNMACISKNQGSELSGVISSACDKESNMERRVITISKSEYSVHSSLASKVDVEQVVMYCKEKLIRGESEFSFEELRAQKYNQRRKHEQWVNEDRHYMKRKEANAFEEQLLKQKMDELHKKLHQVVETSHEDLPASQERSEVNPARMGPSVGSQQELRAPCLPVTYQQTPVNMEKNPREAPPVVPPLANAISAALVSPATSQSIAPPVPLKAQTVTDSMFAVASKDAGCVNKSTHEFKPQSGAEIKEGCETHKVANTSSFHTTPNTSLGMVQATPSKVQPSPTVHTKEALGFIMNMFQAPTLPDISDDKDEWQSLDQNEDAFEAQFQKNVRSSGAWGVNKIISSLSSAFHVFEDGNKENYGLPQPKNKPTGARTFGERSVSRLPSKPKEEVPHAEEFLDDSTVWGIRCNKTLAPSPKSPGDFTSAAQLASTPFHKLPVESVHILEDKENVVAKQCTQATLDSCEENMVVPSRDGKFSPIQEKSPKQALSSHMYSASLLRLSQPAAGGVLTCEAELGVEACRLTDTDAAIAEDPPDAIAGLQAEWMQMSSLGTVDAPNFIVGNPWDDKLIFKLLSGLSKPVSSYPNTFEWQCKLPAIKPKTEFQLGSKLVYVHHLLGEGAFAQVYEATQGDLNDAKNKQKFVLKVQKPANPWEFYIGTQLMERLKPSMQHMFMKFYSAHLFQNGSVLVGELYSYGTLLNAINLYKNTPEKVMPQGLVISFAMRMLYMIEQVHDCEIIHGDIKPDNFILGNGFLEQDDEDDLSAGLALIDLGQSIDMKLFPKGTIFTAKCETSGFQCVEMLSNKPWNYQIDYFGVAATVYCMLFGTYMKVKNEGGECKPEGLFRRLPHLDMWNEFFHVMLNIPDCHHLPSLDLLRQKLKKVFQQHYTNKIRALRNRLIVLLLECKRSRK

[4] = target: protein kinases (human kinome) (Homo sapiens, UniProt P07947); conditions: YES1 (P07947)
Sequence of protein kinases (human kinome) (Homo sapiens, UniProt P07947) (P07947 whole entry): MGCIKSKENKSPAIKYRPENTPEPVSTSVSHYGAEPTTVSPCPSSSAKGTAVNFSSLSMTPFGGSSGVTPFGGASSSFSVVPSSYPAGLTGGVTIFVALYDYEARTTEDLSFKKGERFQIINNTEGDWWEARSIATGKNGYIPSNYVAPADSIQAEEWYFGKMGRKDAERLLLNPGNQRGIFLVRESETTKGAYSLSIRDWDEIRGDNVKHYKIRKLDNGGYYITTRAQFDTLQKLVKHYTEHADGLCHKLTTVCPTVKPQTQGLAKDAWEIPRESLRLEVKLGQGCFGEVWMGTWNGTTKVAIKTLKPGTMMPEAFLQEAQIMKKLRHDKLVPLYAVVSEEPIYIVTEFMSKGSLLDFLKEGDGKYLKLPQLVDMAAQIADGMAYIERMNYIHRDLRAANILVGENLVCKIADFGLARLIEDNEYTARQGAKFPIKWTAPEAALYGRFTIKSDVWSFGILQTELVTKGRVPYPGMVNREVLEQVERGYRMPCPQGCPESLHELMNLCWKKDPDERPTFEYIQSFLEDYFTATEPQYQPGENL

[5] = target: T2, protein kinases (human kinome) (Homo sapiens, UniProt P33981); conditions: for logFC TTK: Accession P33981
T2 sequence (P33981 1-857): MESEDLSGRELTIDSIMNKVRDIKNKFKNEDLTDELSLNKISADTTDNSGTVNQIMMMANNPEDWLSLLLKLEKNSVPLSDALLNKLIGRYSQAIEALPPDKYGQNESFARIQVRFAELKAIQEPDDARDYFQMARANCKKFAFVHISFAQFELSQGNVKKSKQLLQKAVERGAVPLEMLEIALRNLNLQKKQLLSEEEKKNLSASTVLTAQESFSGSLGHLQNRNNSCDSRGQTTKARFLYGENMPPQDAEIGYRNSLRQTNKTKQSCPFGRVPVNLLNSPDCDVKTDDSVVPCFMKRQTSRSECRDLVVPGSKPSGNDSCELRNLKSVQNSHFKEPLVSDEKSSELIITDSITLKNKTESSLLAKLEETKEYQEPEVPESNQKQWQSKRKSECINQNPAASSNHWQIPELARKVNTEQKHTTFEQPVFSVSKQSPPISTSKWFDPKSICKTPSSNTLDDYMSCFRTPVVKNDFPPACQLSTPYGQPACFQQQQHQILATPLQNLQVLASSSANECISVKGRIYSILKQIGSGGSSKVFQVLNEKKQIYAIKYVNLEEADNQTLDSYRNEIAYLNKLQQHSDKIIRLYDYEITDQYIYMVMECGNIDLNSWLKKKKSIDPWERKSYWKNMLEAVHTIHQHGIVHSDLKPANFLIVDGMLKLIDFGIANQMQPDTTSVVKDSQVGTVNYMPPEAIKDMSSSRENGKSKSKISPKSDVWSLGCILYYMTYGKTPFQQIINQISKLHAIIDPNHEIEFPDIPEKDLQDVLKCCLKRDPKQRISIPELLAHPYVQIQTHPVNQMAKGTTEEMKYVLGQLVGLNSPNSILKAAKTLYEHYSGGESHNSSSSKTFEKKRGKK

[6] = target: protein kinases (human kinome) (Homo sapiens, UniProt Q14289); conditions: for logFC: PTK2B (Q14289-1) protein abundance, degrader vs DMSO, down
Sequence of protein kinases (human kinome) (Homo sapiens, UniProt Q14289) (Q14289 whole entry): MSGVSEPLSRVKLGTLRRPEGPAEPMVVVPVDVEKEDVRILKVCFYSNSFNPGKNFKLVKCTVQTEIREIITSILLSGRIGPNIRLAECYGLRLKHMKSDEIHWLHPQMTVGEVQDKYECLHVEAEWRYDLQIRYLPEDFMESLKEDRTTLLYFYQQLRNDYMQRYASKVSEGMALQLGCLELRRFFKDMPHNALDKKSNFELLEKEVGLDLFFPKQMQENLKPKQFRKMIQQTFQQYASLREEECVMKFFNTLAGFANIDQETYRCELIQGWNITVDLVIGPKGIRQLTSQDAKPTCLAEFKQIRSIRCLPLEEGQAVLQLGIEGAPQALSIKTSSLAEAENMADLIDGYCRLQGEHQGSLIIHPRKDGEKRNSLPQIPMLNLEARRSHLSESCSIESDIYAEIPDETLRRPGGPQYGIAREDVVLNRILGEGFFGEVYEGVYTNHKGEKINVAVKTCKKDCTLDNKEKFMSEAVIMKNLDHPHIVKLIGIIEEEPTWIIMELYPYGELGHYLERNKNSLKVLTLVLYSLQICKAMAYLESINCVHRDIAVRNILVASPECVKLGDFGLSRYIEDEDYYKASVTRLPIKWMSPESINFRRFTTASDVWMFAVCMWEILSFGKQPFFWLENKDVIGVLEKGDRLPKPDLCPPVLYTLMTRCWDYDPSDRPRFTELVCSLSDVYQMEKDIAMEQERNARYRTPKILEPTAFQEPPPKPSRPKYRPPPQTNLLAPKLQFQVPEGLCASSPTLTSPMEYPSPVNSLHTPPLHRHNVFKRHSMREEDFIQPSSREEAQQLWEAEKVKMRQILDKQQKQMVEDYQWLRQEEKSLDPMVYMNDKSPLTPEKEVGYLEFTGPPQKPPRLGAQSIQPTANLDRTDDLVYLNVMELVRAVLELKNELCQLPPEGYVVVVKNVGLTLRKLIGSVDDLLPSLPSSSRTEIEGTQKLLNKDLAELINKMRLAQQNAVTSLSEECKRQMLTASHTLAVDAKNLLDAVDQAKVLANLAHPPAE

[7] = experiment wp172, direction down

Sequence of protein kinases (human kinome) (Homo sapiens, UniProt Q07912) (Q07912 whole entry): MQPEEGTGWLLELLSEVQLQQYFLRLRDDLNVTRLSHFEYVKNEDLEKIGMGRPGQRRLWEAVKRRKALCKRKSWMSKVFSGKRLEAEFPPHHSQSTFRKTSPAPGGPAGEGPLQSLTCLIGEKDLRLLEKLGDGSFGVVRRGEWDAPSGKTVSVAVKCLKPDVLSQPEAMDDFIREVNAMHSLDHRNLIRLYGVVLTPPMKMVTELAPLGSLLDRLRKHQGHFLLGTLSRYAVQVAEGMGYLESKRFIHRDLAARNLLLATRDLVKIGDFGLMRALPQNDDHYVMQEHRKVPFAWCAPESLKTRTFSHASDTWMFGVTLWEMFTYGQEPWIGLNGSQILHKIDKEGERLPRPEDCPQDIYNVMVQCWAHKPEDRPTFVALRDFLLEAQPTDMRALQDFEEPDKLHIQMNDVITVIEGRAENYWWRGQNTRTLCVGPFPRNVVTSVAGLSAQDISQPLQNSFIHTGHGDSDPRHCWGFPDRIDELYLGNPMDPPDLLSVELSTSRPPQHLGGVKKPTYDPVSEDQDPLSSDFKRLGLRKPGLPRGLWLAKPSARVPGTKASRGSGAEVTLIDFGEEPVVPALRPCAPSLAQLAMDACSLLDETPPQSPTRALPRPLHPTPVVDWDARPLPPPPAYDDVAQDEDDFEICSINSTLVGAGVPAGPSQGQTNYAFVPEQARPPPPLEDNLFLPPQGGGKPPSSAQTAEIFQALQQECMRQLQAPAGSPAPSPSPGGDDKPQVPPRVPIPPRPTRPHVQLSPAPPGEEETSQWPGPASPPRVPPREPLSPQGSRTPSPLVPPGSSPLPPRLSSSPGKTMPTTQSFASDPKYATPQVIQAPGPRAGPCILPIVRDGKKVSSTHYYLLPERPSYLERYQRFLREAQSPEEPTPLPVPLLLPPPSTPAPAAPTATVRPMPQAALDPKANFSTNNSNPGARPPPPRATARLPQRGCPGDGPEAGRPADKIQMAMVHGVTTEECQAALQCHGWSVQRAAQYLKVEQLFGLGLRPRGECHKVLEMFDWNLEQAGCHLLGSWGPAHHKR

Cc1ncsc1-c1ccc([C@H](C)NC(=O)[C@@H]2C[C@@H](O)CN2C(=O)[C@@H](NC(=O)CCOCCOCCN2CCN(c3ccc(Nc4ncc(Cl)c(Nc5ccccc5S(=O)(=O)C(C)C)n4)cc3)CC2)C(C)(C)C)cc1 [FMF.06.098.1]
logFC TNK2 (Q07912-1) ([1]; Experiment wp108): −0.5108
logFC TNK2 (Q07912-1) ([1]; Experiment wp131): −0.5805
logFC TNK2 ([1]; experiment wp108): −0.5108
logFC TNK2 ([1]; experiment wp131): −0.5805
logFC MAP4K2 (Q12851) ([2]; Experiment wp108): −0.5507
logFC MAP4K2 (Q12851) ([2]; Experiment wp131): −0.6092
logFC ([2]; experiment wp108): −0.5507
logFC ([2]; experiment wp131): −0.6092

Cc1ccc(NC(=O)c2cccc(C(F)(F)F)c2)cc1N1Cc2cnc(Nc3ccc(N4CCN(CCCOc5cccc6c5C(=O)N(C5CCC(=O)NC5=O)C6=O)CC4)nc3)nc2N(C)C1=O (centres unmarked) [DB0662]
logFC ([3]; experiment wp168): −0.3382
logFC BUB1 (O43683) ([3]; Experiment wp168): −0.3382
logFC ([4]; experiment wp168): −0.8025
logFC ([4]; experiment wp168, direction down): −0.8025
logFC TNK2 (Q07912-1) ([1]; Experiment wp168): −0.6943
logFC TNK2 ([1]; experiment wp168): −0.6943

Cc1ccc(C(=O)Nc2ccc(CN3CCN(CCCOCCOCCOCCNC(=O)COc4cccc5c4C(=O)N(C4CCC(=O)NC4=O)C5=O)CC3)c(C(F)(F)F)c2)cc1C#Cc1cnc2cccnn12 (centres unmarked) [SB1.G.187]
logFC ([4]; experiment wp172): −0.5324
logFC [4, 7]: −0.5324
logFC MAP4K2 (Q12851) ([2]; Experiment wp056): −1.847
logFC MAP4K2 (Q12851) ([2]; Experiment wp103): −1.79
logFC MAP4K2 (Q12851) ([2]; Experiment wp105): −1.757
logFC MAP4K2 (Q12851) ([2]; Experiment wp107): −2.048
logFC MAP4K2 (Q12851) ([2]; Experiment wp114): −0.7516
logFC ([2]; experiment wp056): −1.847
logFC ([2]; experiment wp103): −1.79
logFC ([2]; experiment wp105): −1.757
logFC ([2]; experiment wp107): −2.048
logFC ([2]; experiment wp114): −0.7516

Cc1ccc(NC(=O)c2cccc(C(F)(F)F)c2)cc1N1Cc2cnc(Nc3ccc(N4CCN(Cc5cn(CCCCCOc6cccc7c6C(=O)N(C6CCC(=O)NC6=O)C7=O)nn5)CC4)nc3)nc2N(C)C1=O (centres unmarked) [DB0646, N-(3-(7-((6-(4-((1-(5-((2-(2,6-Dioxopiperidin-3-yl)-1,3-dioxoisoindolin-4-yl)oxy)pentyl)-1H-1,2,3-triazol-4-yl)methyl)piperazin-1-v)pyridin-3-yl)amino)-1-methyl-2-oxo-1,4-dihydropyrimido[4,5-d]pyrimidin-3(2H)-yl)-4-methylphenyl)-3-(trifluoromethyl)benzamide]
logFC ([3]; experiment wp045): −0.3378
logFC ([3]; experiment wp117): −0.3423
logFC ([3]; experiment wp152): −0.4014
logFC BUB1 (O43683) ([3]; Experiment wp045): −0.3378
logFC BUB1 (O43683) ([3]; Experiment wp117): −0.3423
logFC BUB1 (O43683) ([3]; Experiment wp152): −0.4014
BUB1 degradation ([3]; MOLT-4 and MM.1S cell lines): degraded
logFC ([4]; experiment wp105): −0.3957
logFC ([4]; experiment wp105, direction down): −0.3957
logFC ([4]; experiment wp172): −0.471
logFC [4, 7]: −0.471
logFC TTK ([5]; experiment wp045): −0.5757
logFC TTK ([5]; experiment wp107): −0.372
logFC TTK ([5]; experiment wp117): −0.4267
logFC TTK ([5]; experiment wp152): −0.5131
logFC TTK ([5]; experiment wp160, 4 hr): −0.513
logFC TTK ([5]; experiment wp160, 8 hr): −0.7057
logFC TTK (P33981) ([5]; experiment wp045): −0.5757
logFC TTK (P33981) ([5]; experiment wp107): −0.372
logFC TTK (P33981) ([5]; experiment wp117): −0.4267
logFC TTK (P33981) ([5]; experiment wp152): −0.5131
logFC TTK (P33981) ([5]; experiment wp160, 4 hr): −0.513
logFC TTK (P33981) ([5]; experiment wp160, 8 hr): −0.7057
logFC MAP4K2 (Q12851) ([2]; Experiment wp045): −0.7569
logFC MAP4K2 (Q12851) ([2]; Experiment wp103): −0.4625
logFC MAP4K2 (Q12851) ([2]; Experiment wp107): −0.6245
logFC MAP4K2 (Q12851) ([2]; Experiment wp117): −0.5616
logFC MAP4K2 (Q12851) ([2]; Experiment wp152): −0.7981
logFC MAP4K2 (Q12851) ([2]; Experiment wp160, 4 hr): −0.6132
logFC MAP4K2 (Q12851) ([2]; Experiment wp160, 8 hr): −1.155
logFC ([2]; experiment wp045): −0.7569
logFC ([2]; experiment wp103): −0.4625
logFC ([2]; experiment wp107): −0.6245
logFC ([2]; experiment wp117): −0.5616
logFC ([2]; experiment wp152): −0.7981
logFC ([2]; experiment wp160, 4 hr): −0.6132
logFC ([2]; experiment wp160, 8 hr): −1.155
logFC PTK2B (Q14289) ([6]; Experiment wp152, direction of change down): −2.998
logFC ([6]; 1 hr): −0.3955
logFC ([6]; 2 hr): −1.235
logFC ([6]; 4 hr): −2.341
logFC ([6]; 8 hr): −2.599
logFC PTK2B ([6]; accession Q14289-1, experiment wp045, direction of change down): −2.774
logFC PTK2B ([6]; accession Q14289-1, experiment wp114, direction of change down): −1.358
logFC PTK2B ([6]; accession Q14289-1, experiment wp160, 1 hr, direction of change down): −0.3955
logFC PTK2B ([6]; accession Q14289-1, experiment wp160, 2 hr, direction of change down): −1.235
logFC PTK2B ([6]; accession Q14289-1, experiment wp160, 4 hr, direction of change down): −2.341
logFC PTK2B ([6]; accession Q14289-1, experiment wp160, 8 hr, direction of change down): −2.599
logFC PTK2B ([6]; accession Q14289, experiment wp152, direction of change down): −2.998

Cn1c(=O)c(-c2c(Cl)cccc2Cl)cc2cnc(Nc3ccc(OCCNC(=O)CCCCCCNC(=O)COc4cccc5c4C(=O)N(C4CCC(=O)NC4=O)C5=O)cc3)nc21 (centres unmarked) [SB1.G.192.1]
logFC ([4]; experiment wp131): −1.244
logFC ([4]; experiment wp131, direction down): −1.244
logFC TNK2 (Q07912-1) ([1]; Experiment wp131): −1.488
logFC TNK2 ([1]; experiment wp131): −1.488

Cc1ccc(NC(=O)c2cccc(C(F)(F)F)c2)cc1N1Cc2cnc(Nc3ccc(N4CCN(CCCCC(=O)N[C@H](C(=O)N5C[C@H](O)C[C@H]5C(=O)N[C@@H](C)c5ccc(-c6scnc6C)cc5)C(C)(C)C)CC4)nc3)nc2N(C)C1=O [DB1113]
logFC TNK2 (Q07912-1) ([1]; Experiment wp168): −0.5351
logFC TNK2 ([1]; experiment wp168): −0.5351
logFC MAP4K2 (Q12851) ([2]; Experiment wp168): −2.432
logFC ([2]; experiment wp168): −2.432
